According to patent US20190167716A9, “Use of Electrolyzed Water for Treatment and Prevention of Common Livestock Diseases and Conditions, Including PRRS” (priority 2013, published 2019):

System: streptococcus
Test: Fog test in bi-room swine confinement infected with streptococcus
Type: in vivo
Details: both rooms after a course of R-pen; recurred 10 days later in the control room
Method: A test was conducted in a 70′×280′ bi-room configuration swine confinement in a wean to finish operation infected with streptococcus symptoms and showing severe symptoms. The swine confinement included a common effluent pit with center dividing wall and pit level equalization cutouts at the base. Each room included a standard layout with […] and a 24 inch gated alleyway. Capacity was 2480 head, each room was 70 feet by 140 feet; one room was used as the test room to receive the electrolyzed water treatment, the other as a control. Two high pressure lines, centered through the barn at 12 inches below the ceiling, were used to deliver the electrolyzed water. The water was delivered via 60 nozzles in the treatment room, rated at 0.020 gallons per minute, two for each pen, at 1000 psi. The output of fog or mist to the room was 1.2 gallon per minute, delivered by 1000 psi 3 gpm 2 horsepower pump, actuated by a preset timer. The fog was administered for about 1 minute, each of four times a day at generally equally spaced intervals. Total was about 4.8 gallons per 24 hour period.
Both rooms were filled Oct. 17, 2013. Treatment began 1 week later and continued for 15 weeks. […] The death report, per room per week during the 15 week trial was as follows: […]

Question: Which strep symptoms does the source give for CC1(C)S[C@@H]2[C@H](NC(=O)Cc3ccccc3)C(=O)N2[C@H]1C(=O)[O-].[K+] [R-pen] here?
Answer: decrease in strep symptoms
